Legend:
IKZF1 (Ikaros) = target: T1, IKZF1 (Ikaros) (Homo sapiens, UniProt Q13422+Q96SW2); test: Stable cell line fluorescent reporter degradation assay, IKZF1; type: cell-based; settings: 10 micromolar, HEK 293T IKZF1-mNeonGreen reporter cells, 24 hour incubation, calculated visually from the curves
T1 construct: mScarlet (C, cleaved yes); expressed in transfected cells
Description: (§1) Polycistronic plasmids were constructed for the mammalian expression of fluorescent reporter fusions of human transcription factors IKZF1 (Ikaros) and IKZF3 (Aiolos). The respective protein sequences had their C-terminal end joined to a GGGGS linker repeated three times followed by mNeonGreen, P2A sequence, and mScarlet. IKZF1 expression was driven by a CMV promoter while IKZF3 was EF1α promoter driven. The plasmids contained the HygR resistance gene for positive selection of cells with genomic integration of the reporter constructs. The plasmids were transfected using cationic lipid reagents into adherent HEK 293T cells and stable integrants were selected by treatment with 200 ug/mL hygromycin B. Clonal populations were obtained from the population of stable integrants either by limiting dilution or fluorescence activated cell sorting. The clonal stable cell lines were maintained under constant 200 ug/mL hygromycin B selection while being passaged for use in the degradation assays. The fluorescence intensity of the IKZF1/2/3-mNeonGreen (FITC channel) and mScarlet (PE channel) reporters were routinely analyzed by flow cytometry to confirm consistent expression levels between experiments.
(§2) Representative compounds were evaluated for their ability to degrade IKZF1 and IKZF3 in the following assay.
(§3) The IKZF1/IKZF3 degradation assays were carried out by harvesting the HEK 293T reporter cell lines and resuspending the cells in media formulated for reduced background fluorescence. The respective cell lines were seeded at a density of 4,000 cells/well into black-walled 384-well optical grade assay plates pre-coated by the manufacturer with PDL. The cells were incubated overnight to allow for attachment to the assay plate (37° C. with humidified air and 5% CO2 for all incubations). Dilutions of the compounds were prepared in dimethyl sulfoxide (DMSO) from 10 mM compound stock solutions in DMSO. The assay plates were treated with appropriate concentrations of the compounds by dispensing the DMSO dilutions in quadruplicate wells with an upper limit of 0.5% final DMSO.
(§4) After a 24 hour incubation with the compounds, the assay plates were imaged on an ImageXpress Pico microscopy system (cells maintained at 37° C. during imaging) to obtain the fluorescent readouts. The assay plates were imaged in the FITC and TRITC channels to obtain the mNeonGreen fluorescence intensity (reporter degradation data) and mScarlet fluorescence intensity (for cell segmentation), respectively. 293T-IKZF1 and 293T-IKZF3 reporter cell lines were imaged with exposures of 500 milliseconds (ms) for both FITC and TRITC channels. The resulting data was analyzed with Cell Reporter Xpress software using the 2-channel cell scoring analysis with a “percent positive” readout. The TRITC channel was selected for the “nuclei” segmentation with a threshold of 20 while the FITC channel was selected for the “Marker 1” segmentation and a threshold of 100 for the IKZF1 and IKZF3 reporter lines. The minimum segmentation width was set to 6 micrometers and the maximum segmentation width was set to 15 micrometers for all cell lines.
(§5) The percent degradation amounts were calculated visually from the curves generated at a concentration of 10 micromolar.

IKZF3 (Aiolos) = target: T2, IKZF3 (Aiolos) (Homo sapiens, UniProt Q96SW2+Q9UKT9); test: Stable cell line fluorescent reporter degradation assay, IKZF3; type: cell-based; settings: 10 micromolar, HEK 293T IKZF3-mNeonGreen reporter cells, 24 hour incubation, calculated visually from the curves
T2 construct: mScarlet (C, cleaved yes); expressed in transfected cells
Description: as §1, §2, §3, §4, §5

cereblon (NanoLuc-CRBN) = target: T3, cereblon (NanoLuc-CRBN) (Homo sapiens, UniProt Q96SW2); test: NanoBRET CRBN Cellular Target Engagement Assay; type: binding; settings: compound tested at 10 μM, HEK293T cells transfected with NanoLuc-CRBN, 2 hr incubation; for remaining activity at 10 µM: lower = higher affinity, read-out: % tracer bound At the end of assay; for inhibition at 10 µM: read-out: % tracer removed From CBLN
T3 construct: host or cells: HEK293T
Description: The following example measures the extent to which a test compound of this invention binds to cereblon. In this example, a commercially available cereblon binding test kit (Promega Corporation, Madison, Wis., USA) was used but adapted to a 384 well format.
The kit comprises a tracer that binds to cereblon to form a tracer-cereblon complex. This complex is reversible. Upon addition of the test compound, competition between the tracer and the test compound for the binding site(s) on cereblon occurs. The extent of tracer release from cereblon correlates to the affinity of test compound to bind to cereblon. The higher the affinity, the more tracer is released from cereblon.
The assay is a homogenous cell-based assay that used bioluminescence resonance energy transfer (BRET) to measure cereblon target compound binding which causes loss of BRET. Lower BRET values correlate to higher loss of tracer bound to cereblon and, accordingly, higher the levels of target compound binding to cereblon.
The specifics of the assay include HEK293T cells were transfected with a NanoLuc-CRBN expression plasmid using Fugene as described. Approximately 24 hr later, transfected cells were washed with 1× Phosphate Buffered Saline (PBS) and harvested using trypsin. Cells were resuspended in Opti-MEM (available from Thermo Fisher Scientific) at a concentration of 2×10^5 cells/mL. A ratio of 1 part 100× Tracer to 4 parts NanoBRET Tracer Dilution Buffer was used to make a 20× Tracer stock. Next, 40 μl cells per well containing 1× tracer was dispensed into 384 well white tissue culture treated plates. Compounds were then dispensed using a D330e Digital Dispenser (Tecan Trading AG) and plates were allowed to incubate for 2 hr at 37° C., 5% CO2. Immediately prior to BRET measurements, a 3× Complete NanoBret Nano-Glo Substrate stock in Opti-MEM was prepared and 20 μl per well of substrate was subsequently added to the assay plates. Following a 2-3 minute incubation at room temperature, donor (450 nm) and acceptor (610 nm) emission values were read on a CLARIOStar multimode plate reader (BMG) in luminescence mode. Data were converted to milliBRET units by dividing acceptor emission values by donor emission and multiplying by 1000. […]

T3 sequence (Q96SW2 whole entry): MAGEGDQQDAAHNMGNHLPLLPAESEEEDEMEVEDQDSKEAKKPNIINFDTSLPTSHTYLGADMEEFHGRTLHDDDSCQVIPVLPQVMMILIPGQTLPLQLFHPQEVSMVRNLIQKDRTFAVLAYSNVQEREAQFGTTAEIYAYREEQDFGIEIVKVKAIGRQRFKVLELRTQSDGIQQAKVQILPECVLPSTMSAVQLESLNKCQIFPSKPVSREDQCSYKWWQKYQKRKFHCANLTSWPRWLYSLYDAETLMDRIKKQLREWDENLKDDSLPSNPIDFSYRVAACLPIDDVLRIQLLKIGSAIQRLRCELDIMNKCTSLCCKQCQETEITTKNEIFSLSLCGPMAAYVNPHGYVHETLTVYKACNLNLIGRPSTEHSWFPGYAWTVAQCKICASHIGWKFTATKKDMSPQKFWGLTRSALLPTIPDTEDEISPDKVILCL
T2 sequence (Q9UKT9 whole entry): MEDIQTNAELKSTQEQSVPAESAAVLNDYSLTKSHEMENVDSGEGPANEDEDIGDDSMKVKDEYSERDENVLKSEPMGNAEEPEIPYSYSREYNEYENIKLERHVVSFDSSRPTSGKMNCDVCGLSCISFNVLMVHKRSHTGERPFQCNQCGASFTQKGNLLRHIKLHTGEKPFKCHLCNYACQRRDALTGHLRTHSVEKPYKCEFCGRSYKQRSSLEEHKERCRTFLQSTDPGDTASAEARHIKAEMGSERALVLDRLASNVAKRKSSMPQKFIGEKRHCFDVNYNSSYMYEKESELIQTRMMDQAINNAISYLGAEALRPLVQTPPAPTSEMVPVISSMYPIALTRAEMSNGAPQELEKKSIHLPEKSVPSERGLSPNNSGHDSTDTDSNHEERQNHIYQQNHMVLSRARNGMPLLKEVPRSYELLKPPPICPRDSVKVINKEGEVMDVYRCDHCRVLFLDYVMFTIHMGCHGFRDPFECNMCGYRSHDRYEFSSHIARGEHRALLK
T2 sequence (Q96SW2 whole entry): as the sequence (Q96SW2 whole entry) above
T2 sequence (Q16531 whole entry partner): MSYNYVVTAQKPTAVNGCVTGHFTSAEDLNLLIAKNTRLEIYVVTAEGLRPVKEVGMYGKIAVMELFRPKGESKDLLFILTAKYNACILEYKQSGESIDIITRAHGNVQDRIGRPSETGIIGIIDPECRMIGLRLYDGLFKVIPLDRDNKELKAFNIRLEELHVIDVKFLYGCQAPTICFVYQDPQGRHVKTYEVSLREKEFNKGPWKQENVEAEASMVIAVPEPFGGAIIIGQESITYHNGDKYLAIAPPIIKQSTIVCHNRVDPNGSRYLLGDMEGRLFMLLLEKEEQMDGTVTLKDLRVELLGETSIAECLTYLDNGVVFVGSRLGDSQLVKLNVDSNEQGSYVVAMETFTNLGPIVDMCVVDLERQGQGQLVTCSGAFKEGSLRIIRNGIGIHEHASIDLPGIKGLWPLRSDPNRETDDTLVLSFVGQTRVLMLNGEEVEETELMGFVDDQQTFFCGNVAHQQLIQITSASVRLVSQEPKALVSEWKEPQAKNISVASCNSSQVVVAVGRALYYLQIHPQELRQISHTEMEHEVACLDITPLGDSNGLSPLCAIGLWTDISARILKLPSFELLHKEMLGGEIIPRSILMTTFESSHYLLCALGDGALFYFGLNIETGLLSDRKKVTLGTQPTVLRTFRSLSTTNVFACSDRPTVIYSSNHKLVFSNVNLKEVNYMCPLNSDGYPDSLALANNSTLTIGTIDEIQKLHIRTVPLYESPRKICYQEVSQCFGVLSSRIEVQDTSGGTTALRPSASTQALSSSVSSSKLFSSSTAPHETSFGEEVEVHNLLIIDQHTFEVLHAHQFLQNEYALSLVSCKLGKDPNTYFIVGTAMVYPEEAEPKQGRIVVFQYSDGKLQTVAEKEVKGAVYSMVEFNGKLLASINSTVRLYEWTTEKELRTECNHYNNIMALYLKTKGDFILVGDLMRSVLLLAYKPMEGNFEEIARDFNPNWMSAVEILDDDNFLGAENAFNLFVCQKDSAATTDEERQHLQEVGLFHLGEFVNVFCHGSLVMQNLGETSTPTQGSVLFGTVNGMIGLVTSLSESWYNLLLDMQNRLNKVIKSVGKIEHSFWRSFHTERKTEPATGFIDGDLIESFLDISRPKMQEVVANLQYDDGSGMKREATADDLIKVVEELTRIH
T1 sequence (Q13422 whole entry): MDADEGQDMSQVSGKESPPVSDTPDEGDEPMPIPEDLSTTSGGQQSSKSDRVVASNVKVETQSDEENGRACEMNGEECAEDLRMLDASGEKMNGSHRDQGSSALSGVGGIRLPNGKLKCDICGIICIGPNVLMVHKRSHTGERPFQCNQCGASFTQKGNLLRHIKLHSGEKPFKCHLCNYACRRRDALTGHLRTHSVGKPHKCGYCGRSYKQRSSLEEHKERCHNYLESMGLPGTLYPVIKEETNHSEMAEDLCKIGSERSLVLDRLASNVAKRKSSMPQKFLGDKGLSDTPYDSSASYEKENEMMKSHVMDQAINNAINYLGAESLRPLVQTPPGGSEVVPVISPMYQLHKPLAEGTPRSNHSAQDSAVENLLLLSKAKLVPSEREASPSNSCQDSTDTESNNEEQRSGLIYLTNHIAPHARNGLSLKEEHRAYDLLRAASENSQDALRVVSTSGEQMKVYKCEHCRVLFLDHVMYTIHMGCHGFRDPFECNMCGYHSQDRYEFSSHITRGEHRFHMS
T1 sequence (Q96SW2 whole entry): as the sequence (Q96SW2 whole entry) above
T1 sequence (Q16531 whole entry partner): as the sequence (Q16531 whole entry partner) above

| remaining activity at 10 µM (cereblon (NanoLuc-CRBN)) [%] | inhibition at 10 µM (cereblon (NanoLuc-CRBN)) [%] | Dmax at 10 µM (IKZF1 (Ikaros); HEK-293T, 24 h) [%] | Dmax at 10 µM (IKZF3 (Aiolos); HEK-293T, 24 h) [%] | SMILES | Dmax at 10 µM (IKZF1 (Ikaros)) [%] | Dmax at 10 µM (IKZF3 (Aiolos)) [%] |
| --- | --- | --- | --- | --- | --- | --- |
| 40.9 | 59.1 | 92.4 | 95.8 | Cc1nc2cccc(NCc3ccc(F)cc3)c2c(=O)n1C1CCC(=O)NC1=O (centres unmarked) [Example 4, 3-(5-((4-fluorobenzyl)amino)-2-methyl-4-oxoquinazolin-3(4H)-yl)piperidine-2,6-dione] |  |  |
| 23.8 | 76.2 | 89.7 | 93.6 | Cc1nc2cccc(NCc3cccc(F)c3)c2c(=O)n1C1CCC(=O)NC1=O (centres unmarked) [Example 5, 3-(5-((3-fluorobenzyl)amino)-2-methyl-4-oxoquinazolin-3(4H)-yl)piperidine-2,6-dione] |  |  |
| 22.9 | 77.1 | 76.8 | 94.3 | Cc1cccc(CNc2cccc3nc(C)n(C4CCC(=O)NC4=O)c(=O)c23)c1 (centres unmarked) [Example 7, 3-(2-methyl-5-((3-methylbenzyl)amino)-4-oxoquinazolin-3(4H)-yl)piperidine-2,6-dione] |  |  |
|  |  | 88.2 | 87.4 | O=C1CCC(n2nnc3cccc(NCc4ccc(CN5CCOCC5)cc4)c3c2=O)C(=O)N1 (centres unmarked) [compound 36, 3-(5-((4-(morpholinomethyl)benzyl)amino)-4-oxobenzo[d][1,2,3]triazin-3(4H)-yl)piperidine-2,6-dione] |  |  |
|  |  | 97.1 | 96.3 | Cc1nc2cccc(NCc3ccc(CN4CC(N5CCOCC5)C4)cc3F)c2c(=O)n1C1CCC(=O)NC1=O (centres unmarked) [compound 91, 3-(5-((2-fluoro-4-((3-morpholinoazetidin-1-yl)methyl)benzyl)amino)-2-methyl-4-oxoquinazolin-3(4H)-yl)piperidine-2,6-dione] |  |  |
|  |  | 78.4 | 92.4 | O=C1CCC(n2cnc3cccc(NCc4ccc(CN5CC(N6CCOCC6)C5)cc4F)c3c2=O)C(=O)N1 (centres unmarked) [compound 101, 3-(5-((2-fluoro-4-((3-morpholinoazetidin-1-yl)methyl)benzyl)amino)-4-oxoquinazolin-3(4H)-yl)piperidine-2,6-dione] |  |  |

| SMILES | remaining activity at 10 µM (cereblon (NanoLuc-CRBN)) [%] | inhibition at 10 µM (cereblon (NanoLuc-CRBN)) [%] | Dmax at 10 µM (IKZF1 (Ikaros); HEK-293T, 24 h) [%] | Dmax at 10 µM (IKZF3 (Aiolos); HEK-293T, 24 h) [%] | Dmax at 10 µM (IKZF1 (Ikaros)) [%] | Dmax at 10 µM (IKZF3 (Aiolos)) [%] |
| --- | --- | --- | --- | --- | --- | --- |
| COc1ccc(CNc2cccc3nc(C)n(C4CCC(=O)NC4=O)c(=O)c23)cc1 (centres unmarked) [Example 1, 3-(5-((4-methoxybenzyl)amino)-2-methyl-4-oxoquinazolin-3(4H)-yl)piperidine-2,6-dione] | 47.3 | 52.7 |  |  | 89.1 | 91.1 |
| Cc1nc2cccc(NCc3ccc(CN4CCN(c5ccc(C#N)cc5F)CC4)cc3)c2c(=O)n1C1CCC(=O)NC1=O (centres unmarked) [Example 34, 4-(4-(4-(((3-(2,6-dioxopiperidin-3-yl)-2-methyl-4-oxo-3,4-dihydroquinazolin-5-yl)amino)methyl)benzyl)piperazin-1-yl)-3-fluorobenzonitrile] | 27.4 | 72.6 |  |  | 93.1 | 93.2 |

Source: US11807620B2, “Quinazolinone compounds and related compounds” (PLEXIUM, INC., priority 2020, dated 2023)
